Results on five compounds are retold here after PMC11937066, “Abemaciclib in combination with therapies for patients with metastatic breast cancer: a phase 1b study” (Frontiers in Oncology, 2025).

Series [1] has as its system patients with HR+, HER2- or HER2+ metastatic breast cancer. As to the kind of experiment: Patient disposition and dose adjustments. The settings on record: Part G, with abemaciclib and fulvestrant.
The nature of series [2]: Plasma pharmacokinetics, noncompartmental analysis (LC-MS/MS). The series is classed as in vivo, human. The procedure:
In parts E, F, and H, PK sampling was performed for all analytes pre-dose on Cycle 1 Day 1, Cycle 1 Day 15, and Cycle 2 Day 1, as well as at 1, 2, 4, 6, 8, and 10 hours after dosing on Cycle 1 Day 1 and Cycle 2 Day 1. In Part H, PK sampling was performed for all analytes pre-dose on Cycle 1 Day 1, Cycle 1 Day 15, and Cycle 2 Day 1, as well as at 1, 2, 4, 6, 8, and 10 hours after dosing on Cycle 1 Day 1 and 2, 4, 6, 8, and 10 hours after dosing on Cycle 2 Day 1. In Parts F and H, additional samples were drawn pre-dose on Day 1 of Cycles 3–5 and after trastuzumab infusion on Day 1 of Cycles 1–5. In part H, additional samples were also drawn after pertuzumab infusion on Day 1 Cycle 4 and 5. In Part G, an additional pre-dose sample was drawn on Cycle 3 Day 1, and fulvestrant samples were obtained pre-dose on Day 1 of Cycles 1–3 and Day 15 of Cycle 1.
Samples were analyzed for abemaciclib (and its metabolites), exemestane, everolimus, fulvestrant, LY3023414, and pertuzumab using a validated liquid chromatography-tandem mass spectrometry method (abemaciclib and metabolites: Q^2 solutions, Ithaca, NY, USA; exemestane and everolimus: BASi, West Lafayette, IN, USA; fulvestrant: Charles River Laboratories, Montreal, Quebec, Canada; LY3023414: Covance Laboratories Inc, Madison, WI, USA; pertuzumab: Altasciences Company Inc., Quebec, Canada). Trastuzumab was analyzed using a validated Gyrolab xP method (PPD, Richmond, VA, USA).
Standard noncompartmental PK parameters were computed using Phoenix WinNonlin 64 Build 8.0/8.1 (Pharsight Corporation, Mountain View, CA, USA). This analysis included estimation of Cmax, tmax, Clast, tlast, and AUC0-tlast. AUC calculations were performed using the log linear trapezoidal method.

The test system of the next series is HER2+ breast cancer. The following applies: abemaciclib combined with fulvestrant and trastuzumab versus standard of care chemotherapy plus trastuzumab; cited from earlier work.
The subject of series [3] is HR+ advanced breast cancer. Also on record: method as in PMID 32887722. The settings on record: in combination with ribociclib and fulvestrant; cited from earlier work.
Series [4] has as its system PIK3CA-mutated, HR+, HER2- ABC. Also on record: method as in doi:10.1158/1538-7445.SABCS23-GS03-13. The following applies: with fulvestrant and palbociclib, first-line treatment; cited from earlier work.

SMILES strings stand for the structures. Read-outs that look alike come from different tables or passages of the source.

`CO[C@@H](C)Cn1c(=O)n(C)c2cnc3ccc(-c4cncc(C(C)(C)O)c4)cc3c21` [LY3023414]: in series [1], the “Additional patients who discontinued LY3023414 due to AEs” value was “two”. In addition, in series [1] (12 patients), the LY3023414 dose adjustments is 10 patients, the LY3023414 dose omission result is recorded as “eight” and the LY3023414 dose reduction result is recorded as “seven”.

With `CCN1CCN(Cc2ccc(Nc3ncc(F)c(-c4cc(F)c5nc(C)n(C(C)C)c5c4)n3)nc2)CC1` [abemaciclib], the “mean accumulation ratio (based on Cmax)” value in series [2] (Part E Cohort 1, abemaciclib 150 mg Q12H with exemestane + everolimus) was found to be 3.16. For the same compound, the “mean AUC0-tlast” value in series [2] (Part E Cohort 1, multiple doses abemaciclib 150 mg Q12H with exemestane + everolimus) was 3280 hr^*ng/mL; in series [2] (Part E Cohort 1, single dose abemaciclib 150 mg with exemestane + everolimus), 771 hr^*ng/mL; in series [2] (Part E Cohort 2, single dose abemaciclib 200 mg with exemestane + everolimus), 984 hr^*ng/mL; in series [2] (Part H, single dose abemaciclib 100 mg with trastuzumab and pertuzumab), 343 hr^*ng/mL. In addition, the “accumulation ratio based on Cmax” value in series [2] (Part F, abemaciclib 150 mg Q12H with trastuzumab) is 2.13. Moreover, the “Effect on the pharmacokinetics of the combination study drugs” value in series [2] (Parts E–H) is listed as “no effect”. For the same compound, in series [2] (all combination therapies tested), the “Abemaciclib exposures compared with monotherapy PK data” value was “consistent with monotherapy PK data”. The Cmax (usually the peak of the concentration-time curve) was 71.5 ng/mL in series [2] (human, plasma, oral, 100 mg, Part H, single dose abemaciclib 100 mg with trastuzumab and pertuzumab, read-out: mean Cmax); 452 ng/mL in series [2] (human, plasma, oral, 150 mg, Part E Cohort 1, multiple doses abemaciclib 150 mg Q12H with exemestane + everolimus, read-out: mean Cmax); 157 ng/mL in series [2] (human, plasma, oral, 150 mg, Part E Cohort 1, single dose abemaciclib 150 mg with exemestane + everolimus, plasma, read-out: mean Cmax); 242 ng/mL in series [2] (human, plasma, oral, 150 mg, Part F, abemaciclib 150 mg Q12H with trastuzumab, read-out: steady-state mean Cmax); 191 ng/mL in series [2] (human, plasma, oral, 200 mg, Part E Cohort 2, single dose abemaciclib 200 mg with exemestane + everolimus, plasma, read-out: mean Cmax); 133 to 148 ng/mL in series [2] (human, plasma, oral, Part F, single dose abemaciclib (150 mg or 200 mg) with trastuzumab, range over dose cohorts, read-out: mean Cmax). Besides, the Cmax in series [2] (human, plasma, oral, Part G, single dose 150 mg abemaciclib with 500 mg fulvestrant and 100 mg or 150 mg LY3023414, range over cohorts, read-out: abemaciclib mean Cmax) was 131 to 139 ng/mL. The AUC(0-t) in series [2] (human, plasma, oral, Part F, abemaciclib 150 mg Q12H with trastuzumab, read-out: steady-state mean AUC0-tlast) worked out at 1660 ng·h/mL. The Progression-free survival entry in the series on HER2+ breast cancer was “significantly improved”.

Regarding `Cc1nc(NC(=O)N2CCC[C@H]2C(N)=O)sc1-c1ccnc(C(C)(C)C(F)(F)F)c1` [alpelisib], the “Feasibility of the combination” value in series [3] is “not to be feasible due to toxicity”.

`Nc1cc(C(F)(F)F)c(-c2cc(N3CCOCC3)nc(N3CCOCC3)n2)cn1` [buparlisib]: in series [3], the “Feasibility of the combination” value is “not to be feasible due to toxicity”.

Regarding `C[C@H](Nc1ccc2c(c1)OCCn1cc(N3C(=O)OC[C@H]3C(F)F)nc1-2)C(N)=O` [inavolisib], in series [4], the Progression-free survival result is given as “statistically significant improvement”.
